In one test the target is TNFα (Homo sapiens, UniProt P01375). Kind of test: Immunoassay binding test, TNFa. The settings on record: compounds 100 to 0.78 μM; TNFα 10 ng/ml, receptor 100 ng/ml; read-out: BINDING TNF IC50. The procedure: Microtiter plates (96 wells) are covered with 100 μl of receptor per well, and incubated overnight at 4° C. The following day, after 2 washes in PBS/Tween20, the plates are saturated with 150 μl of PBS/BSA 2% per well, for 2 h at 37° C. […] The cytokine is diluted in series (six concentrations) in a final volume of 120 μl per well. […] The different mixtures are incubated for 2 h at 37° C. 100 μl of each mixture are then transferred to the microtiter plate, respecting the plate plan previously defined and incubated overnight at 4° C. After three washes, 100 μl of biotinylated anti-cytokine secondary antibody are added to each well, then incubated for 2 h at 37° C. After three washes, 100 μl of Avidin-HRP (1/500th dilution) are added and incubated for 30 minutes at 37° C. […] The plates are then read with a spectrophotometer at 450 nm, measuring the optical density for each well.
This binding test is carried out with different cytokines: TNFa, IL-4, IL-6 and IL-13. For IL-6, the incubation of molecules with the cytokine also requires the presence of IL-6Ra at a final concentration of 200 ng/ml.
The final concentrations used for each of the cytokines are presented below: […]

The next test concerns the target TNFa/TNFRI interaction (Homo sapiens, UniProt P01375). Kind of test: TNFa/TNFRI interaction displacement test. It counts as binding. The settings on record: compounds at 50 μM; human TNFRI 100 ng/ml. The protocol: Microtiter plates (96 wells) are covered with 100 μl per well of human TNFRI, at a concentration of 100 ng/ml, then incubated overnight at 4° C. The following day, after two washes in PBS/Tween20, the plates are saturated with 150 μl of PBS/BSA 2% for 2 h at 37° C.
100 μl of each mixture are then transferred to the microtiter plate, respecting the established plate plan and incubated overnight at 4° C.
After three washes, 100 μl of biotinylated anti-cytokine secondary antibody are added to each well and incubated for 2 h at 37° C. After three washes, 100 Avl Avidin-HRP (dilution 1/500th) are added and incubated for 30 minutes at 37° C. […] The plates are then read with a spectrophotometer at 450 nm, measuring the optical density (OD) for each well.

The results in this text go back to patent publication US20230416239A1, “COMPOUNDS AND METHODS FOR TREATING A CYTOKINE-MEDIATED DISEASE” (CONSERVATOIRE NATIONAL DES ARTS ET MÉTIERS, priority 2020, published 2023).

The structures appear in SMILES notation.

Sequence of TNFa/TNFRI interaction (P01375 77-233 limits assumed): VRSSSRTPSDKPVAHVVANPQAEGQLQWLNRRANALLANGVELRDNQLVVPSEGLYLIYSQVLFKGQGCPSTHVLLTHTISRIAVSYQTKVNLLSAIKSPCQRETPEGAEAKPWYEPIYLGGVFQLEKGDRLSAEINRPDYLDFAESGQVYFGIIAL
Sequence of TNFα (P01375 77-233 limits assumed, species assumed): as the sequence (P01375 77-233 limits assumed) above

With `O=S(=O)(c1ccccc1)n1cc(CN(CCCCCNCc2ccnc(F)c2)Cc2ccnc(F)c2)c2ccccc21` [Compound 61], the IC50 at TNFα was found to be 29.8 µM. In addition, the “Displacement (%)” value at TNFa/TNFRI interaction was 64%.
With `CN(CCCCN(Cc1cccnc1F)Cc1cn(S(=O)(=O)N2CCCC2)c2ccccc12)C1CCCCC1` [Compound 110, N1-cyclohexyl-N4-((2-fluoropyridin-3-yl)methyl)-N1-methyl-N4-((1-(pyrrolidin-1-ylsulfonyl)-1H-indol-3-yl)methyl)butane-1,4-diamine], the IC50 on TNFα is 17 µM. Besides, on TNFa/TNFRI interaction, the “Displacement (%)” value is 83%.
In the case of `O=S(=O)(c1ccccc1)n1cc(CN(CCCCNC2CCCCC2)Cc2ccnc(F)c2)c2ccccc21` [Compound 44, N1-cyclohexyl-N4-((2-fluoropyridin-4-yl)methyl)-N4-((1-(phenylsulfonyl)-1H-indol-3-yl)methyl)butane-1,4-diamine], the IC50 on TNFα was determined as 8.6 µM. Besides, the “Displacement (%)” value at TNFa/TNFRI interaction was determined as 109%.
In the same order, the values of `CN(CCCCN(Cc1ccc(F)nc1)Cc1cn(S(=O)(=O)c2ccccc2)c2ccccc12)C1CCCCC1` [Compound 57, N1-cyclohexyl-N4-((6-fluoropyridin-3-yl)methyl)-N1-methyl-N4-((1-(phenylsulfonyl)-1H-indol-3-yl)methyl)butane-1,4-diamine] are 9.4 µM and 113%.
For `CCCN(CCCCN(Cc1cccnc1F)Cc1cn(S(=O)(=O)c2ccccc2)c2ccccc12)C1CCCCC1` [Compound 67, N′-cyclohexyl-N^4-((2-fluoropyridin-3-yl)methyl)-N^4-((1-(phenylsulfonyl)-1H-indol-3-yl)methyl)-N′-propylbutane-1,4-diamine] the same measures were 6.7 µM and 219%.
In the same order, the values of `O=S(=O)(c1ccccc1)n1cc(CN(CCCCNC2CCCCC2)Cc2ccc(F)nc2)c2ccccc21` [Compound 55, N1-cyclohexyl-N4-((6-fluoropyridin-3-yl)methyl)-N4-((1-(phenylsulfonyl)-1H-indol-3-yl)methyl)butane-1,4-diamine] are 7.8 µM and 172%.
Take `CN1CCN(S(=O)(=O)n2cc(CN(CCOCCN(C)C3CCCCC3)Cc3cccnc3F)c3ccccc32)CC1` [Compound 111, N-(2-(2-(((2-fluoropyridin-3-yl)methyl)((1-((4-methylpiperazin-1-yl)sulfonyl)-1H-indol-3-yl)methyl)amino)ethoxy)ethyl)-N-methylcyclohexanamine]: the IC50 on TNFα was 6 µM. Moreover, at TNFa/TNFRI interaction, the “Displacement (%)” value was 224%.
`O=S(=O)(c1ccccc1)n1cc(CN(CCCCCNC2CCCCC2)Cc2cccnc2F)c2ccccc21` [Compound 46, N1-cyclohexyl-N5-((2-fluoropyridin-3-yl)methyl)-N5-((1-(phenylsulfonyl)-1H-indol-3-yl)methyl)pentane-1,5-diamine]: at TNFα, the IC50 was 10.8 µM. In addition, on TNFa/TNFRI interaction, the “Displacement (%)” value worked out at 124%.
For `CN(CCOCCN(Cc1cccnc1F)Cc1cn(S(=O)(=O)N2CCCCC2)c2ccccc12)C1CCCCC1` [Compound 112, N-(2-(2-(((2-fluoropyridin-3-yl)methyl) ((1-(piperidin-1-ylsulfonyl)-1H-indol-3-yl)methyl)amino)ethoxy)ethyl)-N-methylcyclohexanamine] the same measures were 13 µM and 245%.
